Test results from patent US9149038B2, “4-amino-6-(heterocyclic)picolinates and 6-amino-2-(heterocyclic)pyrimidine-4-carboxylates and their use as herbicides” (Dow AgroSciences LLC, priority 2013, dated 2015).
Read-outs that look alike come from different tables or passages of the source.

System: Wheat and Barley and weed species
Assay: Post-Emergent Test III: postemergent herbicidal activity in wheat and barley, visual rating after 21 d and probit GR20/GR50/GR80/GR90 (Tables 9-13)
Type: in vivo
Details: for GR20 HORVS / GR20 TRZAS: growth reduction of 20%; for pest or weed control at 17.5 g/ha / pest or weed control at 35 g/ha / pest or weed control at 70 g/ha: post-emergence, 504 h
How it was run: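 Greenhouse plants (~18/17 °C, 14 h photoperiod) at second–third true leaf stage sprayed at 187 L/ha with a high rate and ½× to 1/16× serial dilutions. Visual injury 0–100% versus solvent-blank controls scored at 21 d; GR20, GR50, GR80 and GR90 derived by probit analysis across rates.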

[1] = ALOMY black-grass (Alopecurus myosuroides), growth reduction of 50%, probit analysis
[2] = ALOMY black-grass (Alopecurus myosuroides), growth reduction of 80%, probit analysis
[3] = ALOMY black-grass (Alopecurus myosuroides), growth reduction of 90%, probit analysis
[4] = APESV bentgrass (Apera spica-venti), growth reduction of 50%, probit analysis
[5] = APESV bentgrass (Apera spica-venti), growth reduction of 80%, probit analysis
[6] = APESV bentgrass (Apera spica-venti), growth reduction of 90%, probit analysis
[7] = HORVS barley, spring (crop), probit analysis
[8] = Hordeum vulgare, HORVS barley, spring (crop), 17.5 g ai/ha, read-out: Visual Growth Reduction (%) 21 Days After Application HORVS
[9] = Hordeum vulgare, HORVS barley, spring (crop), 35 g ai/ha, read-out: Visual Growth Reduction (%) 21 Days After Application HORVS
[10] = Hordeum vulgare, HORVS barley, spring (crop), 70 g ai/ha, read-out: Visual Growth Reduction (%) 21 Days After Application HORVS
[11] = LOLSS ryegrass, growth reduction of 50%, probit analysis
[12] = LOLSS ryegrass, growth reduction of 80%, probit analysis
[13] = LOLSS ryegrass, growth reduction of 90%, probit analysis
[14] = SETVI green foxtail (Setaria viridis), growth reduction of 50%, probit analysis
[15] = SETVI green foxtail (Setaria viridis), growth reduction of 80%, probit analysis
[16] = SETVI green foxtail (Setaria viridis), growth reduction of 90%, probit analysis
[17] = TRZAS wheat, spring (crop), probit analysis
[18] = Triticum aestivum, TRZAS wheat, spring (crop), 17.5 g ai/ha, read-out: Visual Growth Reduction (%) 21 Days After Application TRZAS
[19] = Triticum aestivum, TRZAS wheat, spring (crop), 35 g ai/ha, read-out: Visual Growth Reduction (%) 21 Days After Application TRZAS
[20] = Triticum aestivum, TRZAS wheat, spring (crop), 70 g ai/ha, read-out: Visual Growth Reduction (%) 21 Days After Application TRZAS
[21] = ALOMY black-grass (Alopecurus myosuroides), 17.5 g ai/ha, read-out: Visual Growth Reduction (%) 21 Days After Application ALOMY
[22] = ALOMY black-grass (Alopecurus myosuroides), 35 g ai/ha, read-out: Visual Growth Reduction (%) 21 Days After Application ALOMY
[23] = ALOMY black-grass (Alopecurus myosuroides), 70 g ai/ha, read-out: Visual Growth Reduction (%) 21 Days After Application ALOMY
[24] = APESV bentgrass (Apera spica-venti), 17.5 g ai/ha, read-out: Visual Growth Reduction (%) 21 Days After Application APESV
[25] = APESV bentgrass (Apera spica-venti), 35 g ai/ha, read-out: Visual Growth Reduction (%) 21 Days After Application APESV
[26] = APESV bentgrass (Apera spica-venti), 70 g ai/ha, read-out: Visual Growth Reduction (%) 21 Days After Application APESV
[27] = LOLSS ryegrass, 17.5 g ai/ha, read-out: Visual Growth Reduction (%) 21 Days After Application LOLSS
[28] = LOLSS ryegrass, 35 g ai/ha, read-out: Visual Growth Reduction (%) 21 Days After Application LOLSS
[29] = LOLSS ryegrass, 70 g ai/ha, read-out: Visual Growth Reduction (%) 21 Days After Application LOLSS
[30] = SETVI green foxtail (Setaria viridis), 17.5 g ai/ha, read-out: Visual Growth Reduction (%) 21 Days After Application SETVI
[31] = SETVI green foxtail (Setaria viridis), 35 g ai/ha, read-out: Visual Growth Reduction (%) 21 Days After Application SETVI
[32] = SETVI green foxtail (Setaria viridis), 70 g ai/ha, read-out: Visual Growth Reduction (%) 21 Days After Application SETVI

COC(=O)c1nc(-c2cc3c(cc2F)OC(F)(F)O3)c(F)c(N)c1Cl [Compound 9]
GR50 ALOMY [1]: 13 g ai/ha | GR80 ALOMY [2]: 26 g ai/ha | GR90 ALOMY [3]: 38 g ai/ha | GR50 APESV [4]: 30 g ai/ha | GR80 APESV [5]: 61 g ai/ha | GR90 APESV [6]: 89 g ai/ha | GR20 HORVS [7]: 3 g ai/ha | pest or weed control at 17.5 g/ha [8]: 60 to 74% | pest or weed control at 35 g/ha [9]: 85 to 94% | pest or weed control at 70 g/ha [10]: 85 to 94% | Visual Growth Reduction (%) 21 Days After Application KCHSC (KCHSC kochia (Kochia scoparia), 17.5 g ai/ha): G (0-29) | Visual Growth Reduction (%) 21 Days After Application KCHSC (KCHSC kochia (Kochia scoparia), 35 g ai/ha): G (0-29) | Visual Growth Reduction (%) 21 Days After Application KCHSC (KCHSC kochia (Kochia scoparia), 70 g ai/ha): G (0-29) | GR50 KCHSC (KCHSC kochia (Kochia scoparia), growth reduction of 50%, probit analysis): >70 g ai/ha | GR80 KCHSC (KCHSC kochia (Kochia scoparia), growth reduction of 80%, probit analysis): >70 g ai/ha | GR90 KCHSC (KCHSC kochia (Kochia scoparia), growth reduction of 90%, probit analysis): >70 g ai/ha | GR50 LOLSS [11]: 70 g ai/ha | GR80 LOLSS [12]: >70 g ai/ha | GR90 LOLSS [13]: >70 g ai/ha | GR50 SETVI [14]: 21 g ai/ha | GR80 SETVI [15]: 46 g ai/ha | GR90 SETVI [16]: 71 g ai/ha | GR20 TRZAS [17]: 4 g ai/ha | pest or weed control at 17.5 g/ha [18]: 60 to 74% | pest or weed control at 35 g/ha [19]: 75 to 84% | pest or weed control at 70 g/ha [20]: 75 to 84% | pest or weed control at 17.5 g/ha [21]: 75 to 84% | pest or weed control at 35 g/ha [22]: 85 to 94% | pest or weed control at 70 g/ha [23]: 85 to 94% | pest or weed control at 17.5 g/ha [24]: 0 to 29% | pest or weed control at 35 g/ha [25]: 60 to 74% | pest or weed control at 70 g/ha [26]: 75 to 84% | pest or weed control at 17.5 g/ha [27]: 0 to 29% | pest or weed control at 35 g/ha [28]: 0 to 29% | pest or weed control at 70 g/ha [29]: 45 to 59% | pest or weed control at 17.5 g/ha [30]: 45 to 59% | pest or weed control at 35 g/ha [31]: 75 to 84% | pest or weed control at 70 g/ha [32]: 85 to 94%

Nc1c(F)c(-c2cc3c(cc2F)OC(F)(F)O3)nc(C(=O)O)c1Cl [Compound 13]
GR50 ALOMY [1]: 20 g ai/ha | GR80 ALOMY [2]: 40 g ai/ha | GR90 ALOMY [3]: 57 g ai/ha | GR50 APESV [4]: >70 g ai/ha | GR80 APESV [5]: >70 g ai/ha | GR90 APESV [6]: >70 g ai/ha | GR20 HORVS [7]: 2 g ai/ha | pest or weed control at 17.5 g/ha [8]: 60 to 74% | pest or weed control at 35 g/ha [9]: 75 to 84% | pest or weed control at 70 g/ha [10]: 85 to 94% | GR50 LOLSS [11]: >70 g ai/ha | GR80 LOLSS [12]: >70 g ai/ha | GR90 LOLSS [13]: >70 g ai/ha | Visual Growth Reduction (%) 21 Days After Application MATCH (MATCH wild chamomile (Matricaria recutita L.), 17.5 g ai/ha): G (0-29) | Visual Growth Reduction (%) 21 Days After Application MATCH (MATCH wild chamomile (Matricaria recutita L.), 35 g ai/ha): F (30-44) | Visual Growth Reduction (%) 21 Days After Application MATCH (MATCH wild chamomile (Matricaria recutita L.), 70 g ai/ha): D (60-74) | GR50 MATCH (MATCH wild chamomile (Matricaria recutita L.), growth reduction of 50%, probit analysis): 58 g ai/ha | GR80 MATCH (MATCH wild chamomile (Matricaria recutita L.), growth reduction of 80%, probit analysis): >70 g ai/ha | GR90 MATCH (MATCH wild chamomile (Matricaria recutita L.), growth reduction of 90%, probit analysis): >70 g ai/ha | GR50 SETVI [14]: 4 g ai/ha | GR80 SETVI [15]: 20 g ai/ha | GR90 SETVI [16]: 45 g ai/ha | GR20 TRZAS [17]: 2 g ai/ha | pest or weed control at 17.5 g/ha [18]: 60 to 74% | pest or weed control at 35 g/ha [19]: 75 to 84% | pest or weed control at 70 g/ha [20]: 75 to 84% | Visual Growth Reduction (%) 21 Days After Application VERPE (VERPE bird's-eye speedwell (veronica persica), 17.5 g ai/ha): C (75-84) | Visual Growth Reduction (%) 21 Days After Application VERPE (VERPE bird's-eye speedwell (veronica persica), 35 g ai/ha): B (85-94) | Visual Growth Reduction (%) 21 Days After Application VERPE (VERPE bird's-eye speedwell (veronica persica), 70 g ai/ha): A (95-100) | GR50 VERPE (VERPE bird's-eye speedwell (veronica persica), growth reduction of 50%, probit analysis): 3 g ai/ha | GR80 VERPE (VERPE bird's-eye speedwell (veronica persica), growth reduction of 80%, probit analysis): 16 g ai/ha | GR90 VERPE (VERPE bird's-eye speedwell (veronica persica), growth reduction of 90%, probit analysis): 37 g ai/ha | pest or weed control at 17.5 g/ha [21]: 45 to 59% | pest or weed control at 35 g/ha [22]: 60 to 74% | pest or weed control at 70 g/ha [23]: 95 to 100% | pest or weed control at 17.5 g/ha [24]: 0 to 29% | pest or weed control at 35 g/ha [25]: 45 to 59% | pest or weed control at 70 g/ha [26]: 60 to 74% | pest or weed control at 17.5 g/ha [27]: 0 to 29% | pest or weed control at 35 g/ha [28]: 0 to 29% | pest or weed control at 70 g/ha [29]: 0 to 29% | pest or weed control at 17.5 g/ha [30]: 60 to 74% | pest or weed control at 35 g/ha [31]: 75 to 84% | pest or weed control at 70 g/ha [32]: 95 to 100%
